For the compound `CS(=O)(=O)NCc1cc(-c2ccccc2)c2c(n1)OCCN(Cc1cc(C(F)(F)F)cc(C(F)(F)F)c1)C2=O` [Example 49, 4-[3,5-Bis(trifluoromethyl)benzyl]-2,3,4,5-tetrahydro-8-methanesulfonylaminomethyl-5-oxo-6-phenylpyrido[3,2-f][1,4]oxazepine], the melting point fell in the range of 194 to 195 °C. Turning to `Cc1cnc2c(c1-c1ccccc1)C(=O)N(Cc1cc(C(F)(F)F)cc(C(F)(F)F)c1)CCN(C)C2=O` [Example 50, 6-[3,5-Bis(trifluoromethyl)benzyl]-5,6,7,8,9,10-hexahydro-3,9-dimethyl-5,10-dioxo-4-phenylpyrido(2,3-f][1,4]diazocine], the melting point fell in the range of 203 to 205 °C. The value for `CN1CCN(Cc2cc(C(F)(F)F)cc(C(F)(F)F)c2)C(=O)c2c(-c3ccccc3)ccnc2C1=O` [Example 51, 6-[3,5-Bis(trifluoromethyl)benzyl]-5,6,7,8,9,10-hexahydro-9-methyl-5,10-dioxo-4-phenylpyrido[2,3-f][1,4]diazocine] was 167 to 169 °C; that for `Cc1cnc2c(c1-c1ccccc1)C(=O)N(Cc1ccccc1)CCN(C)C2=O` [Example 52, 6-Benzyl-5,6,7,8,9,10-hexahydro-3,9-dimethyl-5,10-dioxo-4-phenylpyrido[2,3-f][1,4]diazocine] was 183 to 184 °C. Consider `CCN1CCN(Cc2cc(C(F)(F)F)cc(C(F)(F)F)c2)C(=O)c2c(ncc(C)c2-c2ccccc2)C1=O` [Example 53, 6-[3,5-Bis(trifluoromethyl)benzyl]-9-ethyl-5,6,7,8,9,10-hexahydro-3-methyl-5,10-dioxo-4-phenylpyrido[2,3-f][1,4]diazocine], for which the melting point was 228 to 229 °C.

`Cc1cnc2c(c1-c1ccccc1)C(=O)N(Cc1cc(C(F)(F)F)cc(C(F)(F)F)c1)CCCN(C)C2=O` [Example 54, 6-[3,5-Bis(trifluoromethyl)benzyl]-6,7,8,9,10,11-hexahydro-3,10-dimethyl-5,11-dioxo-4-phenyl-5H-pyrido[2,3-g][1,5]diazonine]: the melting point lay within 247 to 249 °C.

As for `CNC(=O)c1cc(-c2ccccc2)c2c(n1)OCCN(Cc1cc(C(F)(F)F)cc(C(F)(F)F)c1)C2=O` [Example 58, 4-[3,5-Bis(trifluoromethyl)benzyl]-N-methyl-2,3,4,5-tetrahydro-5-oxo-6-phenylpyrido[3,2-f][1,4]oxazepine-8-carboxamide], the melting point is 145 °C (dec.). The figure for `CN(C)C(=O)c1cc(-c2ccccc2)c2c(n1)OCCN(Cc1cc(C(F)(F)F)cc(C(F)(F)F)c1)C2=O` [Example 59, 4-[3,5-Bis(trifluoromethyl)benzyl]-N,N-dimethyl-2,3,4,5-tetrahydro-5-oxo-6-phenylpyrido[3,2-f][1,4]oxazepine-8-carboxamide] is 235 to 236 °C; for `CCCCNC(=O)c1cc(-c2ccccc2)c2c(n1)OCCN(Cc1cc(C(F)(F)F)cc(C(F)(F)F)c1)C2=O` [Example 60, 4-[3,5-Bis(trifluoromethyl)benzyl]-N-n-butyl-2,3,4,5-tetrahydro-5-oxo-6-phenylpyrido[3,2-f][1,4]oxazepine-8-carboxamide] it is 194 to 196 °C; for `O=C(c1cc(-c2ccccc2)c2c(n1)OCCN(Cc1cc(C(F)(F)F)cc(C(F)(F)F)c1)C2=O)N1CCCCC1` [Example 61, 4-[3,5-Bis(trifluoromethyl)benzyl]-2,3,4,5-tetrahydro-5-oxo-6-phenyl-8-piperidinocarbonylpyrido[3,2-f][1,4]oxazepine] it is 218 to 220 °C.

With `COc1cc(CN2CCOc3nccc(-c4ccccc4)c3C2=O)cc(OC)c1OC` [Example 64, 2,3,4,5-Tetrahydro-5-oxo-6-phenyl-4-(3,4,5-trimethoxybenzyl)pyrido[3,2-f][1,4]oxazepine], the melting point lay in the range of 177 to 179 °C.

As for `O=C1c2c(-c3ccccc3)ccnc2OCCN1Cc1ccc(Cl)c(Cl)c1` [Example 65, 4-(3,4-Dichlorobenzyl)-2,3,4,5-tetrahydro-5-oxo-6-phenylpyrido[3,2-f][1,4]oxazepine], the melting point fell in the range of 189 to 192 °C. The value for `COc1ccc(CN2CCOc3nccc(-c4ccccc4)c3C2=O)cc1OC` [Example 66, 4-(3,4-Dimethoxybenzyl)-2,3,4,5-tetrahydro-5-oxo-6-phenylpyrido[3,2-f][1,4]oxazepine] was 175 to 176 °C; that for `O=C1c2c(-c3ccccc3)ccnc2OCCN1Cc1ccccc1` [Example 67, 4-Benzyl-2,3,4,5-tetrahydro-5-oxo-6-phenylpyrido[3,2-f][1,4]oxazepine] was 209 to 211 °C; that for `C[C@@H]1COc2nccc(-c3ccccc3)c2C(=O)N(Cc2ccccc2)C1` [Example 69, (S)-5-Benzyl-2,3,4,5-tetrahydro-3-methyl-6-oxo-7-phenyl-6H-pyrido[2,3-b][1,5]oxazocine] was 139 to 141 °C. The value for `C[C@H]1COc2nccc(-c3ccccc3)c2C(=O)N(Cc2ccccc2)C1` [Example 70, (R)-5-Benzyl-2,3,4,5-tetrahydro-3-methyl-6-oxo-7-phenyl-6H-pyrido[2,3-b][1,5]oxazocine] was 139 to 140 °C; that for `C[C@@H]1COc2nccc(-c3ccccc3)c2C(=O)N(Cc2cc(C(F)(F)F)cc(C(F)(F)F)c2)C1` [Example 71, (S)-5-[3,5-Bis(trifluoromethyl)benzyl]-2,3,4,5-tetrahydro-3-methyl-6-oxo-7-phenyl-6H-pyrido[2,3-b][1,5]oxazocine] was 142 to 143 °C. The value for `C[C@H]1COc2nccc(-c3ccccc3)c2C(=O)N(Cc2cc(C(F)(F)F)cc(C(F)(F)F)c2)C1` [Example 72, (R)-5-[3,5-Bis(trifluoromethyl)benzyl]-2,3,4,5-tetrahydro-3-methyl-6-oxo-7-phenyl-6H-pyrido[2,3-b][1,5]oxazocine] was 142 to 143 °C; that for `Cc1ccc(-c2ccnc3c2C(=O)N(Cc2ccccc2)CCO3)cc1` [Example 79, 4-Benzyl-2,3,4,5-tetrahydro-5-oxo-6-(4-methylphenyl)pyrido(3,2-f][1,4]oxazepine] was 203 to 204 °C.

For `Cc1ccc(-c2ccnc3c2C(=O)N(Cc2cc(C(F)(F)F)cc(C(F)(F)F)c2)CCO3)cc1` [Example 80, 4-[3,5-Bis(trifluoromethyl)benzyl]2,3,4,5-tetrahydro-5-oxo-6-(4-methylphenyl)pyrido[3,2-f][1,4]oxazepine], the melting point fell in the range of 212 to 213 °C. The value for `Cc1ccc(-c2ccnc3c2C(=O)N(Cc2ccccc2)C[C@H](C)CO3)cc1` [Example 81, (S)-5-Benzyl-2,3,4,5-tetrahydro-3-methyl-7-(4-methylphenyl)-6-oxo-6H-pyrido[2,3-b][1,5]oxazocine] was 148 to 149 °C; that for `Cc1ccc(-c2ccnc3c2C(=O)N(Cc2cc(C(F)(F)F)cc(C(F)(F)F)c2)C[C@H](C)CO3)cc1` [Example 82, (S)-5-[3,5-Bis(trifluoromethyl)benzyl]2,3,4,5-tetrahydro-3-methyl-7-(4-methylphenyl)-6-oxo-6H-pyrido[2,3-b][1,5]oxazocine] was 159 to 160 °C.

As usually defined, the melting point is the temperature, or range, at which the solid turns liquid.

Values taken from patent US6489315B1, “Cyclic compounds, their production and use” (Takeda Chemical Industries, Ltd., priority 1995, dated 2002).
